Measurements from patent US7902356B2, “Thiazolopyridinone derivates as MCH receptor antagonists” (Eli Lilly and Company, priority 2004, dated 2011).
Where a name gives a salt, the structure may show the parent alone.

Tests used:
human MCHR1 = target: T1, human MCHR1 (Homo sapiens, UniProt Q99705); experiment: 125I-MCH competitive binding assay with clone 43 membranes (SPA); conditions: 125I-MCH binding, Ki from IC50 by Cheng-Prusoff
T1 construct: The full-length cDNA for human MCHR1 was cloned; expressed in transfected cells; host or cells: AV12 cells previously transfected with Galpha15
Procedure: The full-length cDNA for human MCHR1 was cloned from a human adult brain cDNA library (Edge Biosystems, Cat. 38356) by standard polymerase chain reaction (PCR) methodology employing the following primers: sense, 5′-GCCACCATGGACCT GGAAGCCTCGCTGC-3′; anti-sense, 5′-[…]-3′. The PCR reaction was performed in a final volume of 50 μl containing 5 μl of a 10× stock solution of PCR buffer, 1 μl of 10 mM dNTP mixture (200 μM final), 2 μl of 50 mM Mg(SO4) (2 mM final), 0.5 μl of 20 μM solutions of each primer (0.2 μM final), 5 μl of template cDNA containing 0.5 ng DNA, 0.5 μl of Platinum Taq High Fidelity DNA polymerase (Gibco Life Technologies) and […] of H2O. PCR amplification was performed on a Perkin Elmer 9600 thermocycler. After denaturation for 90 sec at 94° C., the amplification sequence consisting of 94° C. for 25 sec, 55° C. for 25 sec and 72° C. for 2 min was repeated 30 times, followed by a final elongation step at 72° C. for 10 min. The desired PCR product (1.1 Kb) was confirmed by agarose gel electrophoresis and the band was extracted from the gel by Geneclean (Bio101) following the manufacturer's instructions. Following extraction, the cDNA fragment was cloned into pCR2.1-TOPO plasmid (Invitrogen Corp) to confirm the identity and sequence.
In order to generate cell lines stably expressing MCHR1, the insert was then subcloned into the Xba I and Not I sites of pcDNA(+)-3.1-neomycin (Invitrogen). After purification by Qiagen Maxi-prep kit (QIAGEN, Inc.), the plasmid was transfected by Fugene 6 (Roche Applied Science) into AV12 cells that had been previously transfected with the promiscuous G protein Gα15. The transfected cells were selected by G418 (800 μg/ml) for 10-14 days and single colonies were isolated from culture plates. The G418-resistant colonies were further selected for MCHR1 expression by measuring MCH-stimulated Ca^2+ transients with a fluorometric imaging plate reader (FLIPR, Molecular Devices).
Both the ^125I-MCH binding and functional GTPγ^35S binding assays employed membranes isolated from a clone designated as clone 43. Typically, cells from 20 confluent T225 flasks were processed by washing the monolayers in cold phosphate-buffered saline (PBS), scraping the cells into same and re-suspending the cell pellet in 35 ml of 250 mM Sucrose, 50 mM HEPES, pH 7.5, 1 mM MgCl2, 24 μg/ml DNase I, and protease inhibitors (1 Complete® tablet, per 50 ml of buffer prepared, Roche Diagnostics). Alternatively, greater levels of cells could be generated by adapting cell growth to suspension culture in 20 L stirred vessel bioreactors. After incubation on ice for 5 min, cells were disrupted with 20-25 strokes of a Teflon/Glass homogenizer attached to an overhead motorized stirrer, and the homogenate was centrifuged at 40,000 rpm in Beckman Type 70.1 Ti rotor. The pellets were re-suspended in 250 mM Sucrose, 50 mM HEPES, pH 7.5, 1.5 mM CaCl2, 1 mM MgSO4 and protease inhibitors by Teflon/Glass homogenization to achieve a protein concentration of ˜3-5 mg/ml (Pierce BCA assay with Bovine serum albumin as standard). Aliquots were stored at −70° C.
Binding of compounds to MCHR1 was assessed in a competitive binding assay employing ^125I-MCH, compound and clone 43 membranes. Briefly, assays are carried out in 96-well Costar 3632 white opaque plates in a total volume of 200 μl containing 25 mM HEPES, pH 7.0, 10 mM CaCl2, 2 mg/ml bovine serum albumin, 0.5% dimethyl sulfoxide (DMSO), 5 μg of clone 43 membranes, 200 pM ^125I-MCH (NEN), 0.625 mg/ml of wheat germ agglutinin scintillation proximity assay beads (WGA-SPA beads, Amersham Inc., now GE Healthcare) and a graded dose of test compound. Non-specific binding is assessed in the presence of 0.1 μM unlabeled MCH. Bound ^125I-MCH is determined by placing sealed plates in a Microbeta Trilux (Perkin Elmer Life and Analytical Sciences Inc.) and counting after a 12 hr delay. […]

[1] = In vivo efficacy: 3 day body weight change in diet-induced obese rats; conditions: 10 mg/kg oral gavage once a day for 3 days; 3 day cumulative; diet-induced obese male Long-Evans rats
Procedure: Vehicle consisted of 1% CMC and 0.25% PS-80 in water.
Animals were individually housed in a temperature regulated room (24° C.) with a reverse 12 hour light/dark cycle (dark 10:00/22:00). Water and food (Teklad 95217, Harlan, Wis.) were available ad libitum. Compounds were dosed orally once a day before onset of dark for 3 days. Daily food intake and body weight change were measured for the 3 day period.

T1 sequence (Q99705 whole entry): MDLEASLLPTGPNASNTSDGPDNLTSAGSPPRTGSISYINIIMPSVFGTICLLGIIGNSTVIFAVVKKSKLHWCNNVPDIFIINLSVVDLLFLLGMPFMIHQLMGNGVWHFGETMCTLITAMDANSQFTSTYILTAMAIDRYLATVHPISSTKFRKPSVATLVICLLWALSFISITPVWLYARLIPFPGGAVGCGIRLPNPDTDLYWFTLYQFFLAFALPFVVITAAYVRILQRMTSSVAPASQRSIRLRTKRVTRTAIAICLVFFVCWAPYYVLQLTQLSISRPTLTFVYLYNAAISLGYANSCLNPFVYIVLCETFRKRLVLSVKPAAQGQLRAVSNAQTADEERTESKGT

SMILES	Ki (human MCHR1)	Body weight reduction @ 10 mg/Kg versus vehicle control. Data expressed in grams. [1]
O=C1c2sc(-c3ccc(Cl)cc3)nc2CCN1c1ccc2c(c1)ncn2CCN1CCCC1 [Example 2, 2-(4-Chloro-phenyl)-5-[1-(2-pyrrolidin-1-yl-ethyl)-1H-benzoimidazol-5-yl]-6,7-dihydro-5H-thiazolo[5,4-c]pyridin-4-one]	39.7 nM	–
Cc1cc2cc(N3CCc4nc(-c5ccc(Cl)cc5)sc4C3=O)ccc2n1CCN1CCCC1 [Example 5, 2-(4-Chloro-phenyl)-5-[2-methyl-1-(2-pyrrolidin-1-yl-ethyl)-1H-indol-5-yl]-6,7-dihydro-5H-thiazolo[5,4-c]pyridin-4-one]	10.2 nM	–
COc1cc(N2CCc3nc(-c4ccc(Cl)cc4)sc3C2=O)ccc1OCCN1CCCCC1 [Example 15, 2-(4-Chloro-phenyl)-5-[3-methoxy-4-(2-piperidin-1-yl-ethoxy)-phenyl]-6,7-dihydro-5H-thiazolo[5,4-c]pyridin-4-one]	19 nM	–
COc1cc(N2CCc3nc(-c4ccc(Cl)cc4)sc3C2=O)ccc1OCCN(C)C [Example 33, 2-(4-Chloro-phenyl)-5-[4-(2-dimethylamino-ethoxy)-3-methoxy-phenyl]-6,7-dihydro-5H-thiazolo[5,4-c]pyridin-4-one]	5.13 nM	–
COc1cc(-n2ccc3nc(-c4ccc(Cl)cc4)sc3c2=O)ccc1OCc1cncn1C [Example 42]	–	1.7 grams
Cl.Cn1cc(CCN2CCCC2)c2ccc(N3CCc4nc(-c5ccc(Cl)cc5)sc4C3=O)cc21 [Example 47, 2-(4-Chloro-phenyl)-5-[1-methyl-3-(2-pyrrolidin-1-yl-ethyl)-1H-indol-6-yl]-6,7-dihydro-5H-thiazolo[5,4-c]pyridin-4-one hydrochloride]	3.16 nM	7.2 grams
COc1cc(-n2ccc3nc(-c4ccc(Cl)cc4)sc3c2=O)ccc1CCCN1CCCC1.Cl [Example 52, 2-(4-Chloro-phenyl)-5-[3-methoxy-4-(3-pyrrolidin-1-yl-propyl)-phenyl]-5H-thiazolo[5,4-c]pyridin-4-one hydrochloride]	–	9.6 grams
COc1cc(-n2ccc3nc(-c4ccc(Cl)cc4)sc3c2=O)ccc1OCCN1CC(C)(C)OC(C)(C)C1 [Example 65, 2-(4-Chloro-phenyl)-5-{3-methoxy-4-[2-(2,2,6,6-tetramethyl-morpholin-4-yl)-ethoxy]-phenyl}-5H-thiazolo[5,4-c]pyridine-4-one Hydrochloride]	35.8 nM	–
